The text below walks through data of PubChem BioAssay AID1259407 (Chemical Carcinogenesis Research Information System (CCRIS), 2018).

Calls of active or inactive are those of the source. The rule behind the calls is not given here.

The data set concerns CCRIS mutagenicity, Ames/micronucleus/aberration tests. Nature of the data set: CCRIS mutagenicity studies.
Where [1] appears, read: Test System: AMES SALMONELLA TYPHIMURIUM, Strain/Indicator: TA98, Metabolic Activation: NONE, Method: PREINCUBATION
Setting [2] is: Test System: AMES SALMONELLA TYPHIMURIUM, Strain/Indicator: TA98, Metabolic Activation: NONE, Method: STANDARD PLATE.
The mark [3] stands for this setting: Test System: AMES SALMONELLA TYPHIMURIUM, Strain/Indicator: TA98, Metabolic Activation: RAT, LIVER, S-9, AROCLOR 1254, Method: STANDARD PLATE.

Take `CC(=O)O`: the mutagenic call by setting is: (Test System: AMES SALMONELLA TYPHIMURIUM, Strain/Indicator: TA97, Metabolic Activation: HAMSTER, LIVER, S-9, AROCLOR 1254 (10%), Method: PREINCUBATION) “inactive; negative”; (Test System: AMES SALMONELLA TYPHIMURIUM, Strain/Indicator: TA97, Metabolic Activation: HAMSTER, LIVER, S-9, AROCLOR 1254 (30%), Method: PREINCUBATION) “inactive; negative”; (Test System: AMES SALMONELLA TYPHIMURIUM, Strain/Indicator: TA97, Metabolic Activation: NONE, Method: PREINCUBATION) “inactive; negative”; (Test System: AMES SALMONELLA TYPHIMURIUM, Strain/Indicator: TA97, Metabolic Activation: RAT, LIVER, S-9, AROCLOR 1254 (10%), Method: PREINCUBATION) “inactive; negative”; (Test System: AMES SALMONELLA TYPHIMURIUM, Strain/Indicator: TA97, Metabolic Activation: RAT, LIVER, S-9, AROCLOR 1254 (30%), Method: PREINCUBATION) “inactive; negative”; (Test System: AMES SALMONELLA TYPHIMURIUM, Strain/Indicator: TA97, Metabolic Activation: RAT, LIVER, S-9, AROCLOR 1254, Method: PREINCUBATION) “inactive; negative”. Further, the mutagenic call runs as follows: (Test System: AMES SALMONELLA TYPHIMURIUM, Strain/Indicator: TA98, Metabolic Activation: HAMSTER, LIVER, S-9, AROCLOR 1254 (10%), Method: PREINCUBATION) “inactive; negative”; (Test System: AMES SALMONELLA TYPHIMURIUM, Strain/Indicator: TA98, Metabolic Activation: HAMSTER, LIVER, S-9, AROCLOR 1254 (30%), Method: PREINCUBATION) “inactive; negative”; under setting [1], “inactive; negative”; (Test System: AMES SALMONELLA TYPHIMURIUM, Strain/Indicator: TA98, Metabolic Activation: RAT, LIVER, S-9, AROCLOR 1254 (10%), Method: PREINCUBATION) “inactive; negative”; (Test System: AMES SALMONELLA TYPHIMURIUM, Strain/Indicator: TA98, Metabolic Activation: RAT, LIVER, S-9, AROCLOR 1254 (30%), Method: PREINCUBATION) “inactive; negative”; (Test System: AMES SALMONELLA TYPHIMURIUM, Strain/Indicator: TA100, Metabolic Activation: HAMSTER, LIVER, S-9, AROCLOR 1254 (10%), Method: PREINCUBATION) “inactive; negative”. Also, the mutagenic call is “inactive; negative” (Test System: AMES SALMONELLA TYPHIMURIUM, Strain/Indicator: TA100, Metabolic Activation: HAMSTER, LIVER, S-9, AROCLOR 1254 (30%), Method: PREINCUBATION); “inactive; negative” (Test System: AMES SALMONELLA TYPHIMURIUM, Strain/Indicator: TA100, Metabolic Activation: NONE, Method: PREINCUBATION); “inactive; negative” (Test System: AMES SALMONELLA TYPHIMURIUM, Strain/Indicator: TA100, Metabolic Activation: RAT, LIVER, S-9, AROCLOR 1254 (10%), Method: PREINCUBATION); “inactive; negative” (Test System: AMES SALMONELLA TYPHIMURIUM, Strain/Indicator: TA100, Metabolic Activation: RAT, LIVER, S-9, AROCLOR 1254 (30%), Method: PREINCUBATION); “inactive; negative” (Test System: AMES SALMONELLA TYPHIMURIUM, Strain/Indicator: TA102, Metabolic Activation: NONE, Method: PREINCUBATION); “inactive; negative” (Test System: AMES SALMONELLA TYPHIMURIUM, Strain/Indicator: TA102, Metabolic Activation: RAT, LIVER, S-9, AROCLOR 1254, Method: PREINCUBATION). The mutagenic call (Test System: AMES SALMONELLA TYPHIMURIUM, Strain/Indicator: TA1535, Metabolic Activation: HAMSTER, LIVER, S-9, AROCLOR 1254 (10%), Method: PREINCUBATION) is “inactive; negative”; the mutagenic call (Test System: AMES SALMONELLA TYPHIMURIUM, Strain/Indicator: TA1535, Metabolic Activation: HAMSTER, LIVER, S-9, AROCLOR 1254 (30%), Method: PREINCUBATION) was “inactive; negative”; the mutagenic call (Test System: AMES SALMONELLA TYPHIMURIUM, Strain/Indicator: TA1535, Metabolic Activation: NONE, Method: PREINCUBATION) is “inactive; negative”; the mutagenic call (Test System: AMES SALMONELLA TYPHIMURIUM, Strain/Indicator: TA1535, Metabolic Activation: RAT, LIVER, S-9, AROCLOR 1254 (10%), Method: PREINCUBATION) is “inactive; negative”; the mutagenic call (Test System: AMES SALMONELLA TYPHIMURIUM, Strain/Indicator: TA1535, Metabolic Activation: RAT, LIVER, S-9, AROCLOR 1254 (30%), Method: PREINCUBATION) was “inactive; negative”.
Regarding `Cc1c2ccccc2c(C)c2c1c1c(c3ccccc32)N1`, the mutagenic call under setting [1] is “active; positive”.
For `[N-]=[N+]=NCC(=O)O`, for the setting “Test System: AMES SALMONELLA TYPHIMURIUM, Strain/Indicator: TA1530, Metabolic Activation: NONE, Method: STANDARD PLATE”, the mutagenic call was “inactive; negative”.
Regarding `O=C(O)c1nn(Cc2ccc(Cl)cc2Cl)c2ccccc12`, the mutagenic call under setting [2] was “inactive; negative”; the mutagenic call under setting [3] is “inactive; negative”; the mutagenic call (Test System: AMES SALMONELLA TYPHIMURIUM, Strain/Indicator: TA100, Metabolic Activation: NONE, Method: STANDARD PLATE) was “inactive; negative”; the mutagenic call (Test System: AMES SALMONELLA TYPHIMURIUM, Strain/Indicator: TA100, Metabolic Activation: RAT, LIVER, S-9, AROCLOR 1254, Method: STANDARD PLATE) was “inactive; negative”; the mutagenic call (Test System: AMES SALMONELLA TYPHIMURIUM, Strain/Indicator: TA1535, Metabolic Activation: NONE, Method: STANDARD PLATE) was “inactive; negative”; the mutagenic call (Test System: AMES SALMONELLA TYPHIMURIUM, Strain/Indicator: TA1535, Metabolic Activation: RAT, LIVER, S-9, AROCLOR 1254, Method: STANDARD PLATE) is “inactive; negative”. Besides, the mutagenic call is “inactive; negative” (Test System: AMES SALMONELLA TYPHIMURIUM, Strain/Indicator: TA1537, Metabolic Activation: NONE, Method: STANDARD PLATE); “inactive; negative” (Test System: AMES SALMONELLA TYPHIMURIUM, Strain/Indicator: TA1537, Metabolic Activation: RAT, LIVER, S-9, AROCLOR 1254, Method: STANDARD PLATE); “inactive; negative” (Test System: AMES SALMONELLA TYPHIMURIUM, Strain/Indicator: TA1538, Metabolic Activation: NONE, Method: STANDARD PLATE); “inactive; negative” (Test System: AMES SALMONELLA TYPHIMURIUM, Strain/Indicator: TA1538, Metabolic Activation: RAT, LIVER, S-9, AROCLOR 1254, Method: STANDARD PLATE); “inactive; negative” (Test System: CHINESE HAMSTER OVARY, Strain/Indicator: CHO-K1-BH4 (HPRT), Metabolic Activation: NONE); “inactive; negative” (Test System: CHINESE HAMSTER OVARY, Strain/Indicator: CHO-K1-BH4 (HPRT), Metabolic Activation: RAT, LIVER, S-9, AROCLOR 1254).
For the compound `NNc1ccn([C@@H]2C[C@H](O)[C@@H](CO)O2)c(=O)n1`, the mutagenic call (Test System: CHINESE HAMSTER V-79, Strain/Indicator: V-79/6-THIOGUANINE, Metabolic Activation: NONE, Method: REPLATING) was “inactive; negative”.
In the case of `CC(=O)Nc1ccc2c(=O)c(=O)c3cccc4ccc1c2c43`, the mutagenic call is, setting by setting: (Test System: AMES SALMONELLA TYPHIMURIUM, Strain/Indicator: TA98(1,8-DNP6), Metabolic Activation: NONE, Method: STANDARD PLATE) “inactive; negative”; (Test System: AMES SALMONELLA TYPHIMURIUM, Strain/Indicator: TA98(1,8-DNP6), Metabolic Activation: RAT, LIVER, S-9, AROCLOR 1254, Method: STANDARD PLATE) “active; positive”; under setting [2], “inactive; negative”; under setting [3], “active; positive”; (Test System: AMES SALMONELLA TYPHIMURIUM, Strain/Indicator: YG1024, Metabolic Activation: NONE, Method: STANDARD PLATE) “inactive; negative”; (Test System: AMES SALMONELLA TYPHIMURIUM, Strain/Indicator: YG1024, Metabolic Activation: RAT, LIVER, S-9, AROCLOR 1254, Method: STANDARD PLATE) “active; positive”.
Regarding `O=S(=O)(C(Cl)(Cl)Cl)C(Cl)(Cl)Cl`, the mutagenic call is “inactive; negative. reevaluation of results: positive” (Test System: MOUSE LYMPHOMA, Strain/Indicator: L5178Y (TK+/TK-), Metabolic Activation: NONE, Method: SUSPENSION/PLATE) and “inactive; negative. reevaluation of results: negative” (Test System: MOUSE LYMPHOMA, Strain/Indicator: L5178Y (TK+/TK-), Metabolic Activation: RAT, LIVER, S-9, AROCLOR 1254, Method: SUSPENSION/PLATE).
